Values after ≈ are worked out from the molar mass of the structure shown. Like-named read-outs stand apart in the source and are kept apart here.
Legend:
Type in all cases: cell-based
HT-29 (Colon) = assay: SRB anti-proliferation assay, HT-29; conditions: Homo sapiens; HT-29, 48 hours
Protocol: (§1) Various cell lines (5×10^3 cells/well) were sub-cultured onto 96-well plates and starved with serum-free medium for 48 h. Then cells were incubated in medium with 10% FBS in the absence or presence of various concentrations of AC006, AC007, AC009, and AC012 (0.1, 0.3, 1, 3, 10, and 30 μg/ml) for 48 hours. After treatment, the medium was discarded firstly. […]. In order to fix the adherent cells, 100 μl of trichloroacetic acid (10% (w/v)) were adding to each well and incubating at 4° C. for 1 hour. Then the plates were then washed with deionized water and dried in the air. Each well were added with 50 μl of Sulforhodamine B (SRB) solution (0.4% w/v in 1% acetic acid) and incubated for 5 min at room temperature. To remove unbound SRB in the plates, the plates were washed with 1% acetic acid and then air dried. The residual bound SRB was solubilized with 100 μl of 10 mM Tris base buffer (pH 10.5), and then read using a micro titer plate reader at 495 nm.

SW-480 (Colon rectal) = assay: SRB anti-proliferation assay, SW-480; conditions: for IC50: SW-480, 48 hours; for inhibition at 10 µg/mL: SW480, SW-480, in 10 μg/ml
Protocol: as §1

DLD-1 (Colorectal) = assay: SRB anti-proliferation assay, DLD-1; conditions: for inhibition at 10 µg/mL: DLD-1, in 10 μg/ml
Protocol: as §1

LN-229 (Brain, Glioma) = assay: SRB anti-proliferation assay, LN-229; conditions: Homo sapiens; LN-229, 48 hours
Protocol: as §1

NST (Colon) = assay: SRB anti-proliferation assay, NST
Protocol: as §1

RKO (Colorectal) = assay: SRB anti-proliferation assay, RKO; conditions: for inhibition at 10 µg/mL: in 10 μg/ml
Protocol: as §1

HCT-116 (Colon rectal) = assay: SRB anti-proliferation assay, HCT-116; conditions: Homo sapiens; for IC50: HCT-116, 48 hours
Protocol: as §1

PC3 (Prostate) = assay: SRB anti-proliferation assay, PC3; conditions: PC3, 48 hours
Protocol: as §1

A549 (Lung) = assay: SRB anti-proliferation assay, A549; conditions: Homo sapiens; for IC50: A549, 48 hours
Protocol: as §1

B16F10 (Melanoma) = assay: SRB anti-proliferation assay, B16F10; conditions: Mus musculus, B16-F10; B16F10, 48 hours
Protocol: as §1

COLO205 (Colon) = assay: SRB anti-proliferation assay, COLO205; conditions: Homo sapiens, COLO 205; COLO205, 48 hours
Protocol: as §1

Huh-7 (Liver) = assay: SRB anti-proliferation assay, Huh-7; conditions: Homo sapiens; for IC50: Huh-7, 48 hours; for inhibition at 0.3 µg/mL: Huh-7, in 0.3 μg/ml
Protocol: as §1

U251 (Brain, Glioma) = assay: SRB anti-proliferation assay, U251; conditions: Homo sapiens, U-251; U251, 48 hours
Protocol: as §1

Sk-Hep-1 (Liver) = assay: SRB anti-proliferation assay, Sk-Hep-1; conditions: Homo sapiens, SK-HEP1; Sk-Hep-1, 48 hours
Protocol: as §1

U87 (Brain, Glioma) = assay: SRB anti-proliferation assay, U87; conditions: U87, 48 hours
Protocol: as §1

EPCs in presence of VEGF = assay: Matrigel capillary tube formation assay; conditions: 1 μg/ml, EPC, VEGF 20 ng/ml, 16 hr; read-out: inhibit tube formation
Protocol: Matrigel was added to 15-well-plates (ibidi) in a total volume of 10 μl in each well. Plates were stood at 37° C. for 30 min to form a gel layer. After gel formation, EPCs (5×10^3 cells) treated with or without AC012 (0.1, 0.3, 1 μg/ml) in presence of VEGF (20 ng/ml) were applied to each well, and plates were incubated for at 37° C. 16 hr with 5% CO2. After incubation, the inverted contrast phase microscope (Nikon, Japan) was used for subject observation.

[1] = tested on: Endothelial progenitor cell (EPCs); assay: SRB assay, EPC cell proliferation; conditions: 48 h, read-out: inhibitory concentrations of 50% EPC cell proliferation (IC50)
Protocol: as §1, with “Endothelial progenitor” for “Various”, “(EPCs, 5×10^3” for “lines (5×10^3”, “of” for “of AC006, AC007, AC009, and”, “10” for “10,”, “h.” for “hours. After treatment, the medium was discarded firstly.”

[2] = Homo sapiens, SW480, 48 h, read-out: IC50
[3] = Homo sapiens, DLD-1, 48 h, read-out: IC50

Row | IC50 (SW-480 (Colon rectal); [2]) | IC50 (DLD-1 (Colorectal); [3]) | IC50 (LN-229 (Brain, Glioma)) | IC50 (HCT-116 (Colon rectal)) | IC50 (PC3 (Prostate)) | IC50 (A549 (Lung)) | IC50 (B16F10 (Melanoma)) | IC50 (Huh-7 (Liver)) | Compound | inhibition at 10 µg/mL (SW-480 (Colon rectal); Homo sapiens) | inhibition at 10 µg/mL (DLD-1 (Colorectal); Homo sapiens) | IC50 (RKO (Colorectal); 48 h, read-out: IC50) | inhibition at 10 µg/mL (RKO (Colorectal)) | inhibition at 0.3 µg/mL (Huh-7 (Liver)) | also measured
1 | 18.6 µg/mL (≈ 41.4 µM) | 14.6 µg/mL (≈ 32.6 µM) | 19.5 µg/mL (≈ 43.5 µM) | 2.56 µg/mL (≈ 5.71 µM) | 15 µg/mL (≈ 33.4 µM) | 8.08 µg/mL (≈ 18 µM) | 22.4 µg/mL (≈ 50 µM) | < 0.3 µg/mL | COC1=C(OC)[C@H](OC(C)=O)[C@H](C/C=C(\C)CC/C=C(\C)CC/C=C(\C)CO)[C@@H](C)C1=O [AC009] | 7.98% | 8.75% | 15.9 µg/mL (≈ 35.5 µM) | 33.2% | 88.2% | IC50 (HT-29 (Colon)): 33.2 µg/mL (≈ 74.1 µM); IC50 (SW-480 (Colon rectal)): > 10 µg/mL; IC50 (DLD-1 (Colorectal); DLD-1, 48 hours): > 10 µg/mL; IC50 (NST (Colon); 48 hours): > 25 µg/mL; inhibition at 25 µg/mL (NST (Colon); in 25 μg/ml): 44.4%; IC50 (RKO (Colorectal); 48 hours): > 10 µg/mL; IC50 (COLO205 (Colon)): 2.45 µg/mL (≈ 5.46 µM)
2 | > 10 µg/mL | > 10 µg/mL | – | 2.43 µg/mL (≈ 5.59 µM) | – | – | – | – | COC1=C(OC)[C@H](OC(C)=O)[C@H](C/C=C(\C)CC/C=C(\C)C/C=C/C(C)(C)O)CC1=O [AC011] | 31.6% | 7.57% | > 10 µg/mL | 24.1% | – | –
3 | > 10 µg/mL | > 10 µg/mL | 19.4 µg/mL (≈ 43.2 µM) | 2.29 µg/mL (≈ 5.08 µM) | 11.4 µg/mL (≈ 25.2 µM) | > 10 µg/mL | 9.16 µg/mL (≈ 20.3 µM) | < 0.3 µg/mL | COC1=C(OC)[C@H](OC(C)=O)[C@H](C/C=C(\C)CC/C=C(\C)CCCC(C)CO)[C@@H](C)C1=O (some centres unmarked) [AC012] | 9.05% | 20.2% | > 10 µg/mL | 34.7% | 78.9% | IC50 (U251 (Brain, Glioma)): 22.7 µg/mL (≈ 50.4 µM); IC50 (Sk-Hep-1 (Liver)): 8.27 µg/mL (≈ 18.4 µM); inhibition at 10 µg/mL (A549 (Lung); A549, in 10 μg/ml): 49.5%; IC50 (U87 (Brain, Glioma)): 18.6 µg/mL (≈ 41.3 µM); inhibition at 1 µg/mL (EPCs in presence of VEGF): 31.9%; IC50 [1]: 29 µg/mL (≈ 64.4 µM)

Further lines, the molecule ahead of its results:

Row | Compound | IC50 (SW-480 (Colon rectal); [2]) | IC50 (DLD-1 (Colorectal); [3]) | IC50 (LN-229 (Brain, Glioma)) | IC50 (HCT-116 (Colon rectal)) | IC50 (PC3 (Prostate)) | IC50 (A549 (Lung)) | IC50 (B16F10 (Melanoma)) | IC50 (Huh-7 (Liver)) | inhibition at 10 µg/mL (SW-480 (Colon rectal); Homo sapiens) | inhibition at 10 µg/mL (DLD-1 (Colorectal); Homo sapiens) | IC50 (RKO (Colorectal); 48 h, read-out: IC50) | inhibition at 10 µg/mL (RKO (Colorectal)) | inhibition at 0.3 µg/mL (Huh-7 (Liver)) | also measured
4 | COC1=C(OC)[C@H](O)[C@H](C/C=C(\C)CC/C=C(\C)CCCC(C)CO)[C@@H](C)C1=O (some centres unmarked) [AC012-H1] | > 10 µg/mL | > 10 µg/mL | – | < 0.3 µg/mL | – | 6.4 µg/mL (≈ 15.7 µM) | – | < 0.3 µg/mL | 14.8% | 11.8% | > 10 µg/mL | 17.5% | 91.2% | inhibition at 0.3 µg/mL (HCT-116 (Colon rectal); HCT-116, in 0.3 μg/ml): 52.7%
5 | COC1C(=O)C(C)[C@@H](C/C=C(\C)CC/C=C(\C)CCCC(C)CO)[C@@H](O)C1(OC)OC (some centres unmarked) [AC012-H2] | > 10 µg/mL | > 10 µg/mL | – | > 10 µg/mL | – | – | – | – | 5.66% | 8.31% | > 10 µg/mL | 31.6% | – | inhibition at 10 µg/mL (HCT-116 (Colon rectal); HCT-116, in 10 μg/ml): 40.3%

From US9884801B2, “Compounds from antrodia camphorata, method for preparing the same and use thereof” (ONENESS BIOTECH CO.,LTD., priority 2014, dated 2018)
